# Laboratory results: article PMC3838380, “Investigating the Allosteric Regulation of YfiN from Pseudomonas aeruginosa: Clues from the Structure of the Catalytic Domain” (PLoS ONE, 2013)
# How the values were obtained:
# YfiNHAMP-GGDEF = target: T1, YfiNHAMP-GGDEF (Pseudomonas aeruginosa, UniProt Q9I4L5); experiment: isothermal titration calorimetry; format: binding
# T1 construct: gene tpbB; cytosolic HAMP-GGDEF portion, residues 183-435, C-terminal His-tag (pET24b), synthetic gene, E. coli BL21(DE3), about 28 kDa, monomeric by AUC
# Excerpt: isothermal titration calorimetry on YfiNHAMP-GGDEF
# YfiNGGDEF = target: T2, YfiNGGDEF (Pseudomonas aeruginosa, UniProt Q9I4L5); experiment: isothermal titration calorimetry; format: binding
# T2 construct: gene tpbB
# Excerpt: isothermal titration calorimetry on YfiNGGDEF
# T1 sequence (Q9I4L5 183-435): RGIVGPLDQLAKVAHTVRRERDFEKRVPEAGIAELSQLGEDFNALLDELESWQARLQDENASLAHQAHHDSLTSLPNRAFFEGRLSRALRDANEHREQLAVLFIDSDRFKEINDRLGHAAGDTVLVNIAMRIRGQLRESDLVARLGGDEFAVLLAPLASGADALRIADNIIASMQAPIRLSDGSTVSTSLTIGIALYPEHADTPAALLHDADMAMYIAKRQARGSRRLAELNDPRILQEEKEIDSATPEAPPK
# T2 sequence (Q9I4L5 232-435): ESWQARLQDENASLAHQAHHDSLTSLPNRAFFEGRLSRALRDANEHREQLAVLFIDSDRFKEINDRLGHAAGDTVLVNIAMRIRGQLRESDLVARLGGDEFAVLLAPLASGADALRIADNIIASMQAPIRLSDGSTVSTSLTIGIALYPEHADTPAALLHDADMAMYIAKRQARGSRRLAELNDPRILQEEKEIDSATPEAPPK
structure (smiles),measurement,setting,value
Nc1nc2c(ncn2[C@@H]2O[C@H](COP(=O)(O)OP(=O)(O)OP(=O)(O)O)[C@@H](O)[C@H]2O)c(=O)[nH]1 [GTP],Kd,YfiNHAMP-GGDEF,180 nM
same,Kd,YfiNGGDEF,67 nM
